Experimental data published in patent US20030229066A1, “Novel heterocyclic urea derivatives and their use as dopamine D3 receptor ligands” (priority 2001, published 2003).
pKi: −log10 of the molar value.

Each molecule was assayed against T1, cloned human dopamine D3 receptors (Homo sapiens, UniProt P35462) (assay: [N-Methyl-3H]Spiroperidol binding to cloned human dopamine D3 receptors). Settings: not given.
T1 construct: expressed in transfected cells
T1 sequence (P35462 whole entry): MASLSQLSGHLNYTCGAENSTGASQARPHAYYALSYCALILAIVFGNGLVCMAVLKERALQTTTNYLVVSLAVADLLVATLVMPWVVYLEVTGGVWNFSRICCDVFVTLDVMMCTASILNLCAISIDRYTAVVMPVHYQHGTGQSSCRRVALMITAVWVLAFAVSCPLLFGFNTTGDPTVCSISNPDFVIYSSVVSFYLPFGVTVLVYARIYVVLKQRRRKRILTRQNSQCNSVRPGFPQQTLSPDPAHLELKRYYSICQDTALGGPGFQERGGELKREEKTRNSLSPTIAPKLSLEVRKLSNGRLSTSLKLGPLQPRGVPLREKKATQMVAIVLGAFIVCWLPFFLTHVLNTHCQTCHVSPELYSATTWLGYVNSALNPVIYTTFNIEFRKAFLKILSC
From the text: [N-Methyl-^3H]Spiroperidol Binding to Cloned Human Dopamine D3 Receptors
This assay measures the in vitro activity of compounds on cloned human dopamine (D3) receptors and predicts the direct dopamine-blocking properties of putative neuropsychiatric agents at human dopamine D3 receptors.
The D3 gene was isolated from a human striatal cDNA library (Stratagene). The gene was sequenced and sub-cloned into the expression vector RC/RSV (Invitrogen). CHO (Chinese Hamster Ovary) cells were stably transfected with 10 μg of the D3/RSV plasmid using the DOTAP method from Boehringer Mannheim and 72 clones that were G418 resistant were isolated. Using mRNA and binding displacement data a single high expressing clone was identified. This clone was then grown in large batches for the purpose of developing a 96 well format assay.
The cells are harvested into 250 ml centrifuge tubes with 100 volumes of cold phosphate buffered saline (PBS) and spun down (1200×G for 10 min at 4° C.). The medium is removed and 100 ml PBS are added to each centrifuge tube, cells are resuspened and spun down again. The PBS is removed and the final pellet is homogenized in an appropriate volume of 10% DMSO with a polytron on ice at a medium setting.
For Kj determinations: [^3H]NMSP is made up to a concentration of 2.7 nM in buffer 2b, such that when 150 μl is added to each tube a final concentration of 0.4 nM is attained in the 1 ml assay. Samples of total CPM added are taken for each experiment to calculate the total ligand concentration.
5. S(-)-Eticlopride is obtained from Research Biochemicals International (RBI catalog number E-101). A refrigerated stock (good for up to a month) solution of S(-)-eticlopride is made at a concentration of 30 μM in buffer 2b. One hundred microliters are added to 3 wells for the determination of nonspecific binding (this yields a final concentration of 3 μM in the 1 ml assay).
For most assays, a 100 μM stock solution of the test compound is made up in a suitable solvent (usually <0.1% acetic acid) and serially diluted with buffer 2b, such that when 100 μl of drug is combined with the total 1 ml assay, final concentrations ranging from 10^−5-10^−8 M are attained. Characteristically eight concentrations are studied for each assay; however, higher or lower concentrations may be used, depending on the potency of the drug.
The 96-Well Packard Unifilters GF/B are incubated for >1 h at 25° C. in 0.1% polyethylamine (from 3,b). The cold tissue is added last and mixed on a orbital shaker for a few seconds and is then incubated at 37° C. for 30 min in a shaking water bath. The assay is stopped by rapid filtration through Packard Unifilter plates. The filter membranes are then washed with 15 ml of ice-cold 0.05 M Tris buffer. The filters are then dried (˜15 min under a heat lamp or incubated for 15 min in a 60° C. oven) and a bottom seal is applied. Then 40 μl of Packard Microscint 20 scintillation cocktail is added and a permanent topseal (Type P) is applied and heat sealed. The plates are then shaken on an orbital shaker for 1 h and placed in the Packard Topcount and counted for at least 5 minutes for each point.
Specific binding is defined as the difference between total binding and the binding in the presence of 3 μM S-(-)-eticlopride. Total binding is approximately 10% of the total added ligand. Cheng-Prusoff determination (Kj's) are performed using Prism software using a one-site competition curve analysis where the top and the bottom of the non-linear regression are held constant at 0% and 100% percent inhibition. The percent inhibition at each drug concentration is the mean of duplicate determinations.
In the case of `C=CCN(CC1CC1CN1CCCN(c2csc3cc(F)ccc23)CC1)C(=O)Nc1ccc(OC)cc1` (racemic) [compound 830389], the pKi was 8.53. Molecule `O=C(Nc1ccc(OC(F)(F)F)cc1)N(Cc1ccccc1)CC1CC1CN1CCCN(c2csc3cc(F)ccc23)CC1` (racemic) [compound 830400] has a pKi of 7.38. For `O=C(Nc1ccc(Cl)c(Cl)c1)N(Cc1ccccc1)CC1CC1CN1CCCN(c2csc3cc(F)ccc23)CC1` (racemic) [compound 830401], the pKi was 7.53. For `COc1ccc(NC(=O)NCC2CC2CN2CCCN(c3csc4cc(F)ccc34)CC2)cc1` (racemic) [compound 830408], the pKi was 8.46. For `O=C(NCC1CC1CN1CCCN(c2csc3cc(F)ccc23)CC1)Nc1ccc(Cl)c(Cl)c1` (racemic) [compound 830409], the pKi was 7.32. Work on `CC(C)(C)NC(=O)NCC1CC1CN1CCC(c2noc3ccsc23)CC1` (racemic) [compound 831498] yielded a pKi of 7.36. For `O=C(NCCc1ccccc1)NCC1CC1CN1CCC(c2noc3ccsc23)CC1` (racemic) [compound 831670], the pKi was 6.80.

Same assay, conditions: Table III; read-out: d3Ki
`COc1ccc(NC(=O)NCCCCN2CCN(c3csc4cc(C(F)(F)F)ccc34)CC2)cc1` [815994A] was tested, and the pKi was 8.23. `Cc1ccc(NC(=O)NCCCCN2CCN(c3csc4cc(C(F)(F)F)ccc34)CC2)cc1` [815997A] showed a pKi of 8.39. `CC(=O)c1ccc(NC(=O)NCCCCN2CCN(c3c(Cl)sc4cc(F)ccc34)CC2)cc1` [compound 815158] gave a pKi of 8.13. For `O=C(NCCCCN1CCN(c2c(Cl)sc3cc(F)ccc23)CC1)Nc1ccc(Oc2ccccc2)cc1` [compound 815159], the pKi was 7.07. In the case of `O=C(NCCCCN1CCN(c2c(Cl)sc3cc(F)ccc23)CC1)Nc1ccc(-c2ccccc2)cc1` [compound 815160], the pKi was 6.72. With `O=C(NCCCCN1CCN(c2c(Cl)sc3cc(F)ccc23)CC1)Nc1ccc(OCc2ccccc2)cc1` [compound 815161] the pKi was 7.12. Molecule `O=C(NCCCCN1CCN(c2c(Cl)sc3cc(F)ccc23)CC1)Nc1ccc(C(F)(F)F)cc1` [compound 815162] has a pKi of 7.42. `O=C(NCCCCN1CCN(c2c(Cl)sc3cc(F)ccc23)CC1)Nc1cccc(F)c1` [compound 815163] showed a pKi of 7.60. `O=C(NCCCCN1CCN(c2c(Cl)sc3cc(F)ccc23)CC1)Nc1ccc(F)cc1` [compound 815164] was tested, and the pKi was 7.50. For `COc1ccc(NC(=O)NCCCCN2CCN(c3c(Cl)sc4cc(F)ccc34)CC2)cc1` [compound 815165], the pKi was 7.67. `CCCCOc1ccc(NC(=O)NCCCCN2CCN(c3c(Cl)sc4cc(F)ccc34)CC2)cc1` [compound 815166] gave a pKi of 7.43. `CC(C)c1ccc(NC(=O)NCCCCN2CCN(c3c(Cl)sc4cc(F)ccc34)CC2)cc1` [compound 815167] showed a pKi of 7.32. `O=C(NCCCCN1CCN(c2c(Cl)sc3cc(F)ccc23)CC1)Nc1ccc(I)cc1` [compound 815168] was tested, and the pKi was 7.48. In the case of `O=C(NCCCCN1CCN(c2c(Cl)sc3cc(F)ccc23)CC1)Nc1ccccc1Cl` [compound 815169], the pKi was 7.95. Work on `CCCCc1ccc(NC(=O)NCCCCN2CCN(c3c(Cl)sc4cc(F)ccc34)CC2)cc1` [compound 815170] yielded a pKi of 7.75. With `Cc1ccc(NC(=O)NCCCCN2CCN(c3c(Cl)sc4cc(F)ccc34)CC2)cc1` [compound 815171] the pKi was 8.42. `O=C(NCCCCN1CCN(c2c(Cl)sc3cc(F)ccc23)CC1)Nc1ccc(Cl)cc1` [compound 815172] gave a pKi of 8.25. With `O=C(NCCCCN1CCN(c2c(Cl)sc3cc(F)ccc23)CC1)Nc1ccccc1C(F)(F)F` [compound 815173] the pKi was 7.33. `O=C(NCCCCN1CCN(c2c(Cl)sc3cc(F)ccc23)CC1)Nc1ccc(Br)cc1` [compound 815174] gave a pKi of 8.22. With `O=C(NCCCCN1CCN(c2c(Cl)sc3cc(F)ccc23)CC1)Nc1cccc2ccccc12` [compound 815175] the pKi was 7.93. For `O=C(NCCCCN1CCN(c2c(Cl)sc3cc(F)ccc23)CC1)NCc1ccccc1` [compound 815177], the pKi was 7.74. `S=C(NCCCCN1CCC(c2noc3ccsc23)CC1)Nc1ccccc1` [compound 815383] gave a pKi of 6.72. Molecule `O=C(NCCCCN1CCC(c2noc3ccsc23)CC1)Nc1ccc(Br)cc1` [compound 815386] has a pKi of 7.74. In the case of `O=C(NCCCCN1CCC(c2noc3ccsc23)CC1)Nc1ccc(-c2ccccc2)cc1` [compound 815387], the pKi was 7.55. With `O=C(NCCCCN1CCC(c2noc3ccsc23)CC1)NC1CCCCC1` [compound 815389] the pKi was 7.52. In the case of `O=C(NCCCCN1CCC(c2noc3ccsc23)CC1)Nc1cccc2ccccc12` [compound 815390], the pKi was 7.28. Work on `O=C(NCCCCN1CCC(c2noc3ccsc23)CC1)Nc1ccc(Oc2ccccc2)cc1` [compound 815391] yielded a pKi of 7.80. For `O=C(NCCCCN1CCC(c2noc3ccsc23)CC1)NC12CC3CC(CC(C3)C1)C2` [compound 815392], the pKi was 7.62. `CCc1cccc(NC(=O)NCCCCN2CCC(c3noc4ccsc34)CC2)c1` [compound 815934] showed a pKi of 8.38. `O=C(NCCCCN1CCC(c2noc3ccsc23)CC1)Nc1ccc(OC(F)(F)F)cc1` [compound 815935] showed a pKi of 7.27. In the case of `O=C(NCCCCN1CCC(c2noc3ccsc23)CC1)Nc1cc(C(F)(F)F)ccc1Cl` [compound 815936], the pKi was 8.41. Molecule `CC(NC(=O)NCCCCN1CCC(c2noc3ccsc23)CC1)c1ccc(Br)cc1` (stereo not shown) [compound 815937] has a pKi of 7.18. `CCO[Si](CCCNC(=O)NCCCCN1CCC(c2noc3ccsc23)CC1)(OCC)OCC` [compound 815938] showed a pKi of 6.82. With `O=C(NCCCCN1CCC(c2noc3ccsc23)CC1)Nc1ccccc1Br` [compound 815939] the pKi was 7.72. With `CCNC(=O)NCCCCN1CCC(c2noc3ccsc23)CC1` [compound 815940] the pKi was 6.85. For `CCOC(=O)c1ccccc1NC(=O)NCCCCN1CCC(c2noc3ccsc23)CC1` [compound 815941], the pKi was 6.89. In the case of `CCOC(=O)C(CC(C)C)NC(=O)NCCCCN1CCC(c2noc3ccsc23)CC1` (stereo not shown) [compound 815942], the pKi was 7.38. For `CCOC(=O)CCNC(=O)NCCCCN1CCC(c2noc3ccsc23)CC1` [compound 815943], the pKi was 6.70. Work on `COC(=O)C(Cc1ccccc1)NC(=O)NCCCCN1CCC(c2noc3ccsc23)CC1` (stereo not shown) [compound 815944] yielded a pKi of 6.53. Work on `O=C(NCCCCN1CCC(c2noc3ccsc23)CC1)NCc1cc(=O)oc2cc3c(cc12)OCO3` [compound 815945] yielded a pKi of 6.94. `CCCCCCCCNC(=O)NCCCCN1CCC(c2noc3ccsc23)CC1` [compound 815946] was tested, and the pKi was 7.55. `COc1c(Cl)cccc1NC(=O)NCCCCN1CCC(c2noc3ccsc23)CC1` [compound 815947] was tested, and the pKi was 7.59. Molecule `O=C(NCCCCN1CCC(c2noc3ccsc23)CC1)Nc1ccccc1F` [compound 815948] has a pKi of 8.22. In the case of `O=C(NCCCCN1CCC(c2noc3ccsc23)CC1)Nc1ccccc1Cl` [compound 815949], the pKi was 7.87. In the case of `CC(C)c1ccccc1NC(=O)NCCCCN1CCC(c2noc3ccsc23)CC1` [compound 815952], the pKi was 7.57. `C=C(C)c1cccc(C(C)(C)NC(=O)NCCCCN2CCC(c3noc4ccsc34)CC2)c1` [compound 815953] gave a pKi of 7.17. `CCOC(=O)c1ccc(NC(=O)NCCCCN2CCC(c3noc4ccsc34)CC2)cc1` [compound 815954] showed a pKi of 7.83. Molecule `O=C(NCCCCN1CCN(c2csc3cc(C(F)(F)F)ccc23)CC1)Nc1cccc2ccccc12` [compound 815996] has a pKi of 8.23. `O=C(NCCCCN1CCN(c2csc3cc(C(F)(F)F)ccc23)CC1)NCc1ccccc1` [compound 815998] gave a pKi of 7.65. In the case of `COc1ccccc1NC(=O)NCCCCN1CCN(c2csc3cc(C(F)(F)F)ccc23)CC1` [compound 815999], the pKi was 7.72. With `O=C(NCCCCN1CCN(c2csc3cc(C(F)(F)F)ccc23)CC1)Nc1ccc(F)cc1` [compound 816004] the pKi was 8.21. Molecule `O=C(NCCCCN1CCN(c2csc3cc(C(F)(F)F)ccc23)CC1)Nc1ccc(F)cc1F` [compound 816006] has a pKi of 8.13. In the case of `Cc1ccccc1NC(=O)NCCCCN1CCN(c2csc3cc(C(F)(F)F)ccc23)CC1` [compound 816007], the pKi was 7.76. In the case of `COc1ccc(NC(=O)NCCCCN2CCN(c3csc4cc(C(F)(F)F)ccc34)CC2)c(OC)c1` [compound 816008], the pKi was 7.77.
